Measurements: patent publication US8546608B2, “Proteasome inhibitors and methods of using the same” (Cephalon, Inc., priority 2003, dated 2013)

What was measured:
[1] = target: T1, 20S Human Erythrocyte Proteasome (HEP) (Homo sapiens, UniProt P20618+P28074); assay: Chymotrypsin-like activity of 20S Human Erythrocyte Proteasome (HEP), IC50 determination; type: biochemical; settings: assay of Example C, inhibition of HEP
T1 construct: 20S Human Erythrocyte Proteasome (HEP), purchased from Immatics Biotechnologies Inc; purchased Immatics Biotechnologies Inc., Tübingen, Germany; host or cells: human erythrocytes (natural source)
Procedure: Assay for Chymotrypsin-like Activity of 20S Human Erythrocyte Proteasome (HEP)
Proteasome chymotrypsin-like activity of compounds of the invention was assayed according to the following procedure.
In 96-well microtiter plates, 20S Human Erythrocyte Proteasome (HEP), purchased from Immatics Biotechnologies Inc., Tübingen, Germany was plated at 0.2 μg/mL (about 0.6 nM catalytic sites) in 0.04% SDS 20 mM Tris buffer. A fluorimetric substrate Suc-LLVY-AMC (succinyl-Leu-Leu-Val-Tyr-7-amido-4-methylcoumarin), purchased from Sigma Inc., St. Louis, Mo., USA was added to a final concentration of 100 μM from a stock solution of 10 mM in dimethylsulfoxide. Reaction volumes were 100 μl per well. […] Proteasome activity was determined under conditions in which substrate hydrolysis increased linearly with time and the change in fluorescence signal was proportional to the concentration of free AMC.
Determination of IC50 Values for HEP and α-Chymotrypsin Inhibitors
(§1) Inhibition of the chymotrypsin-like activity of HEP and of bovine α-chymotrypsin was determined by incubating the enzyme with various concentrations of putative inhibitors for 15 minutes at 37° C. (or room temperature for α-chymotrypsin) prior to the addition of substrate. Each experimental condition was evaluated in triplicate, and replicate experiments were performed for the inhibitors described herein.

[2] = target: T2, proteasome in Molt-4 cells (human leukemia) (Homo sapiens, UniProt P20618+P28074); type: cell-based; settings: assay of Example E, inhibition of MOLT4; read-out: MOLT4 (EC50)
T2 sequence (P28074 60-263): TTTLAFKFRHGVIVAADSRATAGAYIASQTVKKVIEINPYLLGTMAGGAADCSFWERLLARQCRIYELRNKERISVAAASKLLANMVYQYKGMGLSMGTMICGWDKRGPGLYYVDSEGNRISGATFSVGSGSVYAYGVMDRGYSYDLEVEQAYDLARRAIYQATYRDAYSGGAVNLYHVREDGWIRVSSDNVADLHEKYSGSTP
T2 sequence (P20618 29-241): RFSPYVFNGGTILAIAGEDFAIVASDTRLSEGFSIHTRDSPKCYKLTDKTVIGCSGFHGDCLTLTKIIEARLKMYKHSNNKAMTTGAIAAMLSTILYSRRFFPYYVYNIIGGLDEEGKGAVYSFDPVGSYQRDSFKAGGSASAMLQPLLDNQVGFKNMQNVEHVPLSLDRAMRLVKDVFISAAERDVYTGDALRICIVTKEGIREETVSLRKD
Procedure: Cellular Assay for Chymotrypsin-like activity of Proteasome in Molt-4 Cell Line
The chymotrypsin-like activity of proteasome in Molt-4 cells (human leukemia) was assayed according to the following procedure. A brief description of the method was published previously (Harding et al., J. Immunol., 1995, 155, 1767).
Molt-4 cells were washed and resuspended in HEPES-buffered Saline (5.4 mM KCl, 120 mM NaCl, 25 mM Glucose, 1.5 mM MgSO4, 1 mM Na pyruvate, 20 mM Hepes) and plated in 96-well microtiter white plates to a final concentration of 6×10^6 cells/mL. Then various 5× proteasome inhibitor concentrations (or diluted DMSO for controls), prepared from 250×DMSO solutions by diluting 50-fold using HEPES-buffered saline, were added to the plate to a final 1× concentration. After 15 minutes incubation at 37° C., a fluorimetric cell permeable substrate (MeOSuc-FLF-AFC) (methoxysuccinyl-Phe-Leu-Phe-7-amido-4-trifluoromethylcoumarin) purchased from Enzyme Systems Products, catalogue number AFC-88, was added to each well at a final concentration of 25 μM from a stock solution of 20 mM in DMSO. Reaction volumes were 100 μl per well.
The concentration of free AFC was monitored every 1.5 min for 30 min ([…]) on a Polastar Optima, BMG Labtechnologies microplate reader, using an excitation wavelength of 390 nm and emission wavelength of 520 nm. Proteasome activity was determined under conditions in which substrate hydrolysis increased linearly with time and the change in fluorescent signal was proportional to the concentration of free AFC.
Determination of EC50 Values for Proteasome Inhibitors in MOLT-4 Cell Line
as §1, with “of” for “of the”, “proteasome in Molt-4 cells” for “HEP and of bovine α-chymotrypsin”, “cells” for “the enzyme”, “C.” for “C. (or room temperature for α-chymotrypsin)”

IC50 [1] | EC50 [2] | SMILES
< 10 nM | > 10000 nM | CC(C)C[C@H](NC(=O)[C@H](CCCNC(=N)N[N+](=O)[O-])NC(=O)C(C)c1ccccc1)B(O)O (mixture of isomers) [D.7.4, Boronic acid, [(1R)-1-[[(2S)-5-[[imino(nitroamino)methyl]amino]-2[((2RS)-2-phenylpropanoyl)amino]-1-oxopentyl]amino]-3-methylbutyl]]
< 10 nM | > 10000 nM | CC(C)C[C@H](NC(=O)[C@H](CCCNC(=N)N[N+](=O)[O-])NC(=O)C1CCN(C(=O)OC(C)(C)C)CC1)B(O)O (racemic) [D.7.7, Boronic acid, [(1R)-1-[[(2S)-5-[[imino(nitroamino)methyl]amino]-2-[[(4RS)-1-[(1,1-dimethylethoxy)carbonyl]piperidine-4-carbonyl]amino]-1-oxopentyl]amino]-3-methylbutyl]]
< 10 nM | 200 to 2000 nM | CC(C)C[C@H](NC(=O)[C@H](CCCNC(=N)N[N+](=O)[O-])NC(=O)C(CCCCCCCCC#N)C1CCCC1)B(O)O (mixture of isomers) [E.1.19, Boronic acid, [(1R)-1-[[(2S)-5-[[imino(nitroamino)methyl]amino]-2-[((RS)-10-cyano-2-cyclopentydecanoyl)amino]-1-oxopentyl]amino]-3-methylbutyl]]
< 10 nM | 200 to 2000 nM | CCCCC(CC)CCC(=O)N[C@@H](CCCNC(=N)N[N+](=O)[O-])C(=O)N[C@@H](CC(C)C)B(O)O (mixture of isomers) [E.2.23, Boronic acid, [(1R)-1-[[(2S)-5-[[imino(nitroamino)methyl]amino]-2-[((RS)-4-ethyloctanoyl)amino]-1-oxopentyl]amino]-3-methylbutyl]]
< 10 nM | > 10000 nM | CCC(C)C(=O)N[C@@H](CCCNC(=N)N[N+](=O)[O-])C(=O)N[C@@H](CC(C)C)B(O)O (mixture of isomers) [E.2.35, Boronic acid, [(1R)-1-[[(2S)-5-[[immo(nitroamino)methyl]amino]-2-[((RS)-2-methylbutanoyl)amino]-1-oxopentyl]amino]-3-methylbutyl]]
< 10 nM | 200 to 2000 nM | CCCCC(C)CCC(=O)N[C@@H](CCCNC(=N)N[N+](=O)[O-])C(=O)N[C@@H](CC(C)C)B(O)O (mixture of isomers) [E.2.39, Boronic acid, [(1R)-1-[[(2S)-5-[[imino(nitroamino)methyl]amino]-2-[((RS)-4-methyloctanoyl)amino]-1-oxopentyl]amino]-3-methylbutyl]]
< 10 nM | 2000 to 10000 nM | CCCCC(C(=O)N[C@@H](CCCNC(=N)N[N+](=O)[O-])C(=O)N[C@@H](CC(C)C)B(O)O)C1CCCC1 (mixture of isomers) [E.2.59, Boronic acid, [(1R)-1-[[(2S)-5-[[imino(nitroamino)methyl]amino]-2-[[(RS)-2-cyclopentylhexanoyl]amino]-1-oxopentyl]amino]-3-methylbutyl]]
< 10 nM | 2000 to 10000 nM | CC(C)C[C@H](NC(=O)[C@H](CCCNC(=N)N[N+](=O)[O-])NC(=O)C(C)c1ccc(Cl)cc1)B(O)O (mixture of isomers) [E.2.76, Boronic acid, [(1R)-1-[[(2S)-5-[[imino(nitroamino)methyl]amino]-2-[[(RS)-2-(4-chlorophenyl)propanoyl]amino]-1-oxopcntyl]amino]-3-methylbutyl]]
< 100 nM | 2000 to 10000 nM | CC(C)C[C@H](NC(=O)[C@H](CCCNC(=N)N[N+](=O)[O-])NC(=O)C1CCCCN1C(=O)OC(C)(C)C)B(O)O (mixture of isomers) [E.2.81, Boronic acid, [(1R)-1-[[(2S)-5-[[imino(nitroamino)methyl]amino]-2-[[(2RS)-1-[(1,1-dimethylethoxy)carbonyl]piperidine-2-carbonyl]amino]-1-oxopentyl]amino]-3-methylbutyl]]
< 10 nM | < 200 nM | CC(C)C[C@H](NC(=O)[C@H](CCCNC(=N)N[N+](=O)[O-])NC(=O)c1ccc2ccccc2c1)B1O[C@@H]2C[C@@H]3C[C@@H](C3(C)C)[C@]2(C)O1 [D.1.1, Naphthalen-2-carboxamide,N-[(1S)-1-[[[(1R)-1-[(3aS,4S,6S,7aR)-hexahydro-3a,5,5-trimethyl-4,6-methano-1,3,2-benzodioxaborol-2-yl]-3-methylbutyl]amino]carbonyl]-4-[[imino(nitroamino)methyl]amino]butyl]]
< 100 nM | 200 to 2000 nM | CC(C)C[C@H](NC(=O)[C@H](CCCNC(=N)N[N+](=O)[O-])NC(=O)c1cnccn1)B1O[C@@H]2C[C@@H]3C[C@@H](C3(C)C)[C@]2(C)O1 [D.1.2]
< 10 nM | 200 to 2000 nM | CC(C)C[C@H](NC(=O)[C@H](CCCNC(=N)N[N+](=O)[O-])NC(=O)CCN1C(=O)c2ccccc2C1=O)B1O[C@@H]2C[C@@H]3C[C@@H](C3(C)C)[C@]2(C)O1 [D.1.3, 3-(1,3-Dioxo-1,3-dihydro-isoindol-2-yl)-propanamide,N-[(1S)-1-[[[(1R)-1-[(3aS,4S,6S,7aR)-hexahydro-3a,5,5-trimethyl-4,6-methano-1,3,2-benzodioxaborol-2-yl]-3-methylbutyl]amino]carbonyl]-4-[[imino(nitroamino)methyl]amino]butyl]]
< 10 nM | < 200 nM | CCCCc1ccc(C(=O)N[C@@H](CCCNC(=N)N[N+](=O)[O-])C(=O)N[C@@H](CC(C)C)B2O[C@@H]3C[C@@H]4C[C@@H](C4(C)C)[C@]3(C)O2)cc1 [D.1.4, 4-Butylbenzamide,N-[(1S)-1-[[[(1R)-1-[(3aS,4S,6S,7aR)-hexahydro-3a,5,5-trimethyl-4,6-methano-1,3,2-benzodioxaborol-2-yl]-3-methylbutyl]amino]carbonyl]-4-[[imino(nitroamino)methyl]amino]butyl]]
< 10 nM | 200 to 2000 nM | CC(C)C[C@H](NC(=O)[C@H](CCCNC(=N)N[N+](=O)[O-])NC(=O)c1cccc(NC(=O)OC(C)(C)C)c1)B1O[C@@H]2C[C@@H]3C[C@@H](C3(C)C)[C@]2(C)O1 [D.1.5, 3-[(1,1-dimethylethoxy)carbonylamino]benzamide, N-[(1S)-1-[[[(1R)-1-[(3aS,4S,6S,7aR)-hexahydro-3a,5,5-trimethyl-4,6-methano-1,3,2-benzodioxaborol-2-yl]-3-methylbutyl]amino]carbonyl]-4-[[imino(nitroamino)methyl]amino]butyl]-]
< 100 nM | 200 to 2000 nM | COCCOCC(=O)N[C@@H](CCCNC(=N)N[N+](=O)[O-])C(=O)N[C@@H](CC(C)C)B1O[C@@H]2C[C@@H]3C[C@@H](C3(C)C)[C@]2(C)O1 [D.1.6]
< 100 nM | 2000 to 10000 nM | COCCOCCOCC(=O)N[C@@H](CCCNC(=N)N[N+](=O)[O-])C(=O)N[C@@H](CC(C)C)B1O[C@@H]2C[C@@H]3C[C@@H](C3(C)C)[C@]2(C)O1 [D.1.7]
< 10 nM | 200 to 2000 nM | CCOC(=O)/C=C/C(=O)N[C@@H](CCCNC(=N)N[N+](=O)[O-])C(=O)N[C@@H](CC(C)C)B1O[C@@H]2C[C@@H]3C[C@@H](C3(C)C)[C@]2(C)O1 [D.1.8, (E)-3-(Ethoxycarbonyl)acrylamide,N-[(1S)-1-[[[(1R)-1-[(3aS,4S,6S,7aR)-hexahydro-3a,5,5-trimethyl-4,6-methano-1,3,2-benzodioxaborol-2-yl]-3-methylbutyl]amino]carbonyl]-4-[[imino(nitroamino)methyl]amino]butyl]]
